Data on one compound can be found in patent publication US20110070357A1, “Apparatus and Methods for Loading a Drug Eluting Medical Device” (Medtronic Vascular, Inc., priority 2009, published 2011).

A short description of the series: solubility of sirolimus in solvents / dispersion media. The format is physicochemical. As for the experimental part: Solution 524 is a homogeneous mixture in which therapeutic substance 112 dissolves within a solvent or a solvent mixture. In one embodiment, solution 524 includes a high-capacity solvent 528 which is an organic solvent that has a high capacity to dissolve therapeutic substance 112. High capacity as utilized herein is defined as an ability to dissolve therapeutic substance 112 at concentrations greater than 500 mg of substance per milliliter of solvent. Examples of high capacity drug dissolving solvents for sirolimus and similar substances include but are not limited to tetrahydrofuran (THF), di-chloromethane (DCM), chloroform, and di-methyl-sulfoxide (DMSO). In addition to the high-capacity solvent, solution 524 may include an excipient 526 in order to assist in drug elution. In one embodiment, excipient 526 may be a surfactant such as but not limited to sorbitan fatty acid esters such as sorbitan monooleate and sorbitan monolaurate, polysorbates such as polysorbate 20, polysorbate 60, and polysorbate 80, cyclodextrins such as 2-hydroxypropyl-beta-cyclodextrin and 2,6-di-O-methyl-beta-cyclodextrin, sodium dodecyl sulfate, octyl glucoside, and low molecular weight poly(ethylene glycol)s. In another embodiment, excipient 526 may be a hydrophilic agent such as but not limited to salts such as sodium chloride and other materials such as urea, citric acid, and ascorbic acid. […]

With `CO[C@H]1C[C@@H]2CC[C@@H](C)[C@@](O)(O2)C(=O)C(=O)N2CCCC[C@H]2C(=O)O[C@H]([C@H](C)C[C@@H]2CC[C@@H](O)[C@H](OC)C2)CC(=O)[C@H](C)/C=C(\C)[C@@H](O)[C@@H](OC)C(=O)[C@H](C)C[C@H](C)/C=C/C=C/C=C/1C` [sirolimus], the solubility in hexane entry (hexane) was “insoluble in hexane”. Moreover, the solubility in water entry (water) is listed as “insoluble in water”.
